As usually defined, the inhibition is the share of the control response that was lost under treatment.

Assay [1] relates to Normal human liver cells (hepatocytes). Put plainly: Glutathione production promotive action test (hepatocytes). Format: cell-based. Conditions: 24 hours. As for the experimental part: Normal human liver cells (hepatocytes) were cultured using Dulbecco's modified Eagle's medium (DMEM) containing 10% FBS, and then the cells were collected by a trypsin treatment. The collected cells were diluted with DMEM containing 10% FBS to a cell density of 10×10^4 cells/mL, then seeded with 200 μL per well in a 48-well plate, and cultured overnight.
After culturing, the medium was removed, 200 μL of each of test samples (Samples 1 to 3, see Table 30 below for final concentrations) dissolved in DMEM containing 1% FBS was added to each well, and culturing was further performed for 24 hours. As a control, culturing was performed in the same manner using DMEM containing 1% FBS to which no sample was added. After the culturing was completed, the medium was removed from each well, and the cells were washed with 400 μL of PBS(−) and then lysed using 150 μL of M-PER (available from PIERCE).
Quantitative determination of total glutathione was performed using 100 μL of the lysed cells. That is, 100 μL of lysed cell extract, 50 μL of 0.1 mol/L phosphate buffer solution, 25 μL of 2 mmol/L NADPH, and 25 μL of 3.2 unit/mL glutathione reductase were added to a 96-well plate and heated at 37° C. for 10 minutes, then 25 μL of 10 mmol/L 5,5′-dithiobis(2-nitrobenzoic acid) was added, and the absorbance at a wavelength of 412 nm was measured until 5 minutes later to determine ΔOD/min. The total glutathione concentration was calculated based on a calibration curve created using oxidized glutathione (available from FUJIFILM Wako Pure Chemical Corporation). After correcting the obtained value to the glutathione value per total protein amount, the glutathione production promotion rate (%) was calculated based on the following equation.
Terms in the equation represent the following respective ones. • A: Glutathione amount per total protein amount without sample addition • B: Glutathione amount per total protein amount with test sample addition

For a further assay, the target named is T1, DPP IV (rhCD26) (Homo sapiens, UniProt P27487).
T1 construct: purchased R&D Systems
Description: DPP IV activity inhibitory action test. Format: biochemical. As to conditions: read-out: DPP IV activity inhibition rate; for inhibition at 2500 µM: 2500 μmol/L; for inhibition at 10000 µM: 10000 μmol/L. As for the experimental part:
In a 96-well plate, 25 μL of each of test samples (Samples 1 to 3, see Table 3 below for final concentrations) prepared with 25 mM Tris-HCl buffer solution (pH 8.0) and 25 μL of 0.4 μg/mL DPP IV (available from R&D Systems, rhCD26) solution prepared with the above buffer solution were mixed and preincubated at 37° C. for 5 minutes. After that, 50 μL of 0.5 mM Gly-Pro-p-NA-Tos (available from PEPTIDE […], INC.) prepared with the above buffer solution was added, and the mixture was reacted at 37° C. for 90 minutes. After the reaction was completed, the absorbance at a wavelength of 415 nm was measured. From the obtained results, the DPP IV activity inhibition rate (%) was calculated using the following equation.
Terms in the equation represent the following respective ones. • A: Absorbance at wavelength 415 nm without sample addition and with enzyme addition • B: Absorbance at wavelength 415 nm without sample addition and without enzyme addition • C: Absorbance at wavelength 415 nm with test sample addition and with enzyme addition • D: Absorbance at wavelength 415 nm with test sample addition and without enzyme addition

In another assay the test system is B16 melanoma cells. Description: Melanin production suppressive action test on B16 melanoma cells. Format: cell-based. Conditions: 4 days, corrected by cell survival rate. Here is the method:
B16 melanoma cells were cultured using Dulbecco's modified Eagle's medium (DMEM) containing 10% FBS, and then the cells were collected by a trypsin treatment. The collected cells were diluted with DMEM containing 10% FBS and 1 mmol/L theophylline to a cell density of 24.0×10^4 cells/mL, then seeded with 300 μL per well in a 48-well plate, and cultured for 6 hours.
After the culturing was completed, 300 μL of each of test samples (Samples 1 to 3, see Table 5 below for final concentrations) dissolved in DMEM containing 10% FBS and 1 mmol/L theophylline was added to each well, and culturing was performed for 4 days. As a control, culturing was performed in the same manner using DMEM containing 10% FBS and 1 mmol/L theophylline to which no sample was added. After the culturing was completed, the medium was removed, 200 μL of 2 mol/L NaOH solution was added, the cells were disrupted using an ultrasonic disrupter, and the absorbance at a wavelength of 475 nm was measured. From the measured absorbance value, the amount of melanin was calculated based on a calibration curve created using synthetic melanin (available from SIGMA).
In addition, in order to measure the cell survival rate, after culturing in the same manner as above, the medium was removed, the cells were washed with 400 μL of PBS(−) buffer solution, 200 μL of Neutral Red dissolved at a final concentration of 0.05 mg/mL in DMEM containing 10% FBS was added to each well, and culturing was performed for 2.5 hours. After culturing, the neutral red solution was removed, and 200 μL of ethanol/acetic acid solution (ethanol:acetic acid:water=50:1:49) was added to each well to extract the dye. After extraction, the absorbance at a wavelength of 540 nm was measured. From the obtained results, the melanin production suppression rate (%) corrected by the cell survival rate was calculated using the following equation.
Terms in the equation represent the following respective ones. • A: Melanin amount without sample addition • B: Melanin amount with test sample addition • C: Absorbance at wavelength 540 nm without sample addition • D: Absorbance at wavelength 540 nm with test sample addition

T1 sequence (P27487 whole entry): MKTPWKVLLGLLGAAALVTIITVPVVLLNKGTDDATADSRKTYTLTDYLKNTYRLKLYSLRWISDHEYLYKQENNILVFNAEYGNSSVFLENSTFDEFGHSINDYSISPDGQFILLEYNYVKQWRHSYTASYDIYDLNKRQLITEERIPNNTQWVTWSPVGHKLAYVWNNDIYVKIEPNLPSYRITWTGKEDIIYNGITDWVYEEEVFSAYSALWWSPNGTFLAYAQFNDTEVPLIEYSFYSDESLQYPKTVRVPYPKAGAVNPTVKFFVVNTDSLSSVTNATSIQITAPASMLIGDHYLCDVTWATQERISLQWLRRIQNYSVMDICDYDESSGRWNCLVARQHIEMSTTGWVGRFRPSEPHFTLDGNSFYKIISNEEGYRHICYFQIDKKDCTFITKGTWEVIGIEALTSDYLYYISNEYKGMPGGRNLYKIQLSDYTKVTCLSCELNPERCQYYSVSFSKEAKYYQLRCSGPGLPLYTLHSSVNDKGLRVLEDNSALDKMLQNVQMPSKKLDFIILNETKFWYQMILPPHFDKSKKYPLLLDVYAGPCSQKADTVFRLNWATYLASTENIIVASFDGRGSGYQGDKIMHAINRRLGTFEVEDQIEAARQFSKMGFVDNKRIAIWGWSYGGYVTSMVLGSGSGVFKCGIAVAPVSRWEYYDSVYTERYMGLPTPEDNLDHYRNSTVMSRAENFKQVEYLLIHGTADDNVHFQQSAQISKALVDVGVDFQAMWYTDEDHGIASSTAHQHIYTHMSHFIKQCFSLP

Regarding `O=C(O)CCc1ccccc1` [Sample 3, 3-phenylpropionic acid], the “Glutathione production promotion rate” value was found to be 133.9% in assay [1] (31.2 μmol/L), 124.6% in assay [1] (125 μmol/L) and 119.2% in assay [1] (500 μmol/L). Also, at DPP IV (rhCD26), the inhibition at 2500 µM was determined as 4.1%. Further, the inhibition at 10000 µM at DPP IV (rhCD26) was 99.8%. Further, the entries for the “Melanin production suppression rate” value in the assay with B16 melanoma cells (250 μmol/L) and in the assay with B16 melanoma cells (1000 μmol/L) were 46.2% and 57.0%, respectively.
As to `O=C(O)CCc1ccc(O)cc1` [Sample 2, 3-(4-Hydroxyphenyl)propionic acid], the “Glutathione production promotion rate” value in assay [1] (31.2 μmol/L) turned out to be 119.2%; in assay [1] (125 μmol/L), 118.1%. Moreover, the inhibition at 10000 µM at DPP IV (rhCD26) is 96.9%. Moreover, the “Melanin production suppression rate” value in the assay with B16 melanoma cells (62.5 μmol/L) is recorded as 8.5%; with B16 melanoma cells (250 μmol/L) it was 40.2%; with B16 melanoma cells (1000 μmol/L), 69.5%.
Regarding `O=C(O)CCc1ccc(O)c(O)c1` [Sample 1, 3,4-Dihydroxyhydrocinnamic acid], the “Glutathione production promotion rate” value in assay [1] (31.2 μmol/L) was 123.9%; in assay [1] (125 μmol/L), 124.8%; in assay [1] (500 μmol/L), 113.4%. In addition, on DPP IV (rhCD26) (625 μmol/L), the inhibition at 625 µM came out at 7.2%. For the same compound, the inhibition at 2500 µM at DPP IV (rhCD26) is 17.6%. Besides, the inhibition at 10000 µM on DPP IV (rhCD26) came to 97.1%. Moreover, the “Melanin production suppression rate” value in the assay with B16 melanoma cells (250 μmol/L) came out at 63.8%.
